Experiments:
STAT3 [1] = target: T1, STAT3 (Homo sapiens, UniProt P40763); assay: Western blot in U87-MG and MDA-MB-231 cells; assay type: cell-based; parameters: endogenous in cells; host or cells: L540, HDLM-2, U87-MG, MDA-MB-231, further human glioblastoma and breast cancer lines
Description: (§1) The human cancer cell lines used in the experiment were U87-MG (human malignant glioblastoma) and MDA-MB-231 (human malignant breast cancer) cell lines, and various kinds of human-derived blood and solid cancer cells including these human cancer cell lines were cultured as previously described (Jung J E, et al. FASEB J. 19, 1296-1298 (2005)). The human Hodgkin lymphoma cancer cell lines L540 and HLDM-2 used in the experiment were obtained from the German Collection of Microorganism and Cell Cultures (DSMZ, Germany) and cultured using RPMI 1640 medium containing 20% FBS in a 5% CO2 incubator at a temperature of 37° C.
(§2) Western blot analysis was performed (Jung J E, et al. FASEB J. 19, 1296-1298 (2005)). The cells were washed two times with PBS and suspended in the lysate (50 mM Tris-HCl, pH 7.4, 350 mM NaCl, 1% Triton X-100, 0.5% Nonidet P-40, 10% glycerol, 0.1% SDS, 1 mM EDTA, 1 mM EGTA, 1 mM Na3VO4, 1 mM PMSF, protease and phosphorylation inhibitor) and the cell membrane and nuclear membrane were crushed to lyse the cells. The insoluble protein fraction was removed by centrifugation, and the supernatant was mixed with SDS electrophoresis buffer and electrophoresis (SDS-PAGE) was performed to detect the protein with the desired antibody and to confirm the protein expression level.

STAT3 [2] = target: T1, STAT3; assay: STAT3 activity in various human cancer cell lines with excessively activated or IL-6-induced STAT3; assay type: cell-based; parameters: endogenous in cells; host or cells: L540, HDLM-2, U87-MG, MDA-MB-231, further human glioblastoma and breast cancer lines
Description: as §1, §2

STAT92E = assay: Drosophila cell luciferase assay (10XSTAT92E-luciferase reporter); assay type: cell-based; details: compared with DMSO-treated group, concentration-dependent
Description: Drosophila cells (S2-NP, 24×3) used in the experiment were cultured as previously described (Kim B H, et al. Mol Cancer Ther. 7, 2672-2680 (2008)). S2-NP (Drosophila Schneider cell) cells were Drosophila-derived macrophage-like cells and were cultured in Schneider's medium. 24×3 cells were cell lines stably expressed by inserting 10XSTAT92E-luciferase and PolIII-Renilla luciferase-labeled plasmid DNA as reporter constructs into S2-NP cells and were cultured in a medium prepared by adding […] of geneticin to the same medium as that for S2-NP. S2-NP cells in which unpaired (upd) or HOPT^Tum-l as a ligand was expressed and 24×3 cells constructed with reporter constructs were mixed at a constant ratio and cultured for 24 hours in the presence of a compound, the expression level of STAT92E was measured using a luminometer, and the inhibition effect was compared with that of the DMSO-treated group.

U87-MG cells [3] = assay: Survival of mice injected with U87-MG cells; assay type: in vivo; details: versus DMSO
U87-MG cells [4] = assay: Matrigel invasion assay, U87-MG; assay type: cell-based, human; details: 24 hours, versus DMSO
Description: The growth factor-reduced Matrigel was diluted with a serum-free culture solution at a 1:3 ratio, transferred to a 24-well plate, and solidified at 37° C. for 5 hours. The cells were placed in a culture solution containing 1% serum and added to the solidified Matrigel, 600 μl of a culture solution containing 10% serum to which fibronectin was added at a concentration of […] was added thereto, and the cells were cultured for 24 hours. Thereafter, the cells were fixed and stained by adding Diffquick solution thereto and then observed under a Leica Application Suite microscope, and images were taken.

MDA-MB-231 cells = assay: Human tumor cell xenograft, MDA-MB-231; assay type: in vivo, BALB/c nude mice; details: MDA-MB-231 xenograft, injected directly into the tumor, versus DMSO
Description: Male Nude Mouse (BALB/cAnNCrj-nu/nu) was purchased from Charles River Japan Inc. (Shin-Yokohama, Japan). The mouse was bred in a clean room in which the temperature and humidity were constantly controlled. The breeding process was carried out according to the method described in the manual for maintenance of laboratory animals in Seoul National University. U87-MG cells or MDA-MB-231 cells were diluted with PBS, suspended in 100 μl of Matrigel at 25% concentration, and injected into the back of mouse and bred for 6 to 10 weeks. Human tumor growth was measured every other day using a vernier caliper from 2 weeks after cell injection. With regard to the degree of inhibition of human tumor cell formation, 40 μM of ODZ10117 was directly injected into the human tumor on days 0, 3, and 5 from week 4 of tumor cell injection. On the 7th day, the mouse was sacrificed to separate the tumor, and the tumor cell inhibitory efficacy of the drug was measured by being compared with that of the control group treated with 1% DMSO.

[5] = tested on: p-STAT3, Cleaved Caspase-3, Bcl-XL, Ki67 and MMP2; assay: Tumor histology and immunostaining of xenograft tumor sections; assay type: in vivo, BALB/c nude mice; details: 7th day of drug administration
Description: Tumors isolated from mice were fixed with formalin and embedded with paraffin, and sections were cut from each paraffin block. For histological evaluation, the sections were stained with hematoxylin-eosin, phospho-STAT3, cleaved caspase-3, Bcl-XL, Ki67, and pro/active MMP-2, respectively. The paraffin of the sections was removed, moisture was removed using alcohol, and then the sections were heated in 10 mM sodium citrate buffer (pH: 6.0) for 5 minutes with microwaves. Non-specific binding was removed by reacting the sections with a PBS solution containing 2.5% bovine serum albumin and 2% normal goat serum for 1 hour. The sections were reacted with antibodies against phospho-STAT3, cleaved caspase-3, Bcl-XL, Ki67, and pro/active MMP-2 diluted 1:100 overnight at 4° C. As a negative control, the sections were reacted with a dilution solution in a state of not containing primary antibodies. The sections were then washed and reacted with secondary antibodies labeled with appropriate biotin, and the location and expression of the bound antibodies were confirmed using an avidin-biotin-horseradish complex. For histological evaluation, each stained section was observed under a microscope at 100-fold and 400-fold magnifications and analysis was performed using a Sony XC-77 CCD camera and a microcomputer imaging device Model 4 image analysis system.

T1 sequence (P40763 whole entry): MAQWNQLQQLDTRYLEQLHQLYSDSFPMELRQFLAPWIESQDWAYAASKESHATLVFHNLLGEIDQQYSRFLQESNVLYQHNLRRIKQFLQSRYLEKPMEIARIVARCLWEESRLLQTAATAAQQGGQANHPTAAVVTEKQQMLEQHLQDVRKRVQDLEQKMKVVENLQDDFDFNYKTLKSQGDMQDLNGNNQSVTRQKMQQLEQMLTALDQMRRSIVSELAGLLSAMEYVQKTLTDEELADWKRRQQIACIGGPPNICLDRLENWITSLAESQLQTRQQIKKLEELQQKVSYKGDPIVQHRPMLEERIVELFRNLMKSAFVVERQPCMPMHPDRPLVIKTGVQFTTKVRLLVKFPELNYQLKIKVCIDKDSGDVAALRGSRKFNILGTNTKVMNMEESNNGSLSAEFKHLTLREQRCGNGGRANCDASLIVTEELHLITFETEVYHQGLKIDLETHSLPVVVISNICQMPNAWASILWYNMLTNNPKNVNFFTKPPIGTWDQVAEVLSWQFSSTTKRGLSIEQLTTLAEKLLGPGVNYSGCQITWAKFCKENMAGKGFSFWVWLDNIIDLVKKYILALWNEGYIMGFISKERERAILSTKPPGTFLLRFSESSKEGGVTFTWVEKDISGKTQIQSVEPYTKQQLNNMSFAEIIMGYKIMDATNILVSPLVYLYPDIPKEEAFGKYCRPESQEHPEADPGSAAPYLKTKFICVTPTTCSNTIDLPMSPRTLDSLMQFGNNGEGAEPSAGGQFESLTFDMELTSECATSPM

Q: With `Clc1ccc(OCc2noc(C(Cl)(Cl)Cl)n2)c(Cl)c1` [ODZ10117, 3-(2,4-dichloro-phenoxymethyl)-5-trichloromethyl-[1,2,4]oxadiazole] as the compound, how does the “phosphorylation of tyrosine 705 and serine 727 residues of STAT3” value (STAT3 [1]) read?
A: The value was “significantly inhibited phosphorylation of tyrosine 705 and serine 727 residues of STAT3”.

Q: And the “activity of STAT3 induced by IL-6” value (STAT3 [2]; IL-6 induced)?
A: Its value is “efficiently inhibited the activity of STAT3 induced by IL-6”.

Q: What about the “activity of STAT3” value (STAT3 [2]; various human cancer cell lines in which STAT3 was excessively activated) of the same compound?
A: The value was “inhibited the activity of STAT3 in all kinds of cell lines used in the experiment”.

Q: And the “activity of STAT3 induced by IL-6, compared with known inhibitors” value (STAT3 [2]; versus NSC628869 and NSC74859)?
A: Its value is “more efficiently inhibited the activity of STAT3 induced by IL-6 than NSC628869 and NSC74859”.

Q: And the “promoter activity of STAT92E” value (STAT92E)?
A: Its value is “significantly decreased the promoter activity of STAT92E”.

Q: And the survival time (U87-MG cells [3])?
A: Its survival time is “survival time increased”.

Q: And the cell invasion (U87-MG cells [4])?
A: Its cell invasion is “significantly decreased cell invasion in both the two cell lines”.

Q: What about the tumor growth (MDA-MB-231 cells) of the same compound?
A: The tumor growth was “significantly inhibited tumor growth”.

Q: What about the “activity of caspase-3 in tumor tissues” value [5] of the same compound?
A: Its value is “increased the activity of caspase-3”.

Q: What about the “expression of Bcl-XL in tumor tissues” value [5] of the same compound?
A: The value was “significantly decreased the expression”.

Q: What about the “expression of Ki67 in tumor tissues” value [5] of the same compound?
A: Its value is “significantly decreased the expression of Ki67”.

Q: What about the “expression of pro/active MMP2 in tumor tissues” value [5] of the same compound?
A: The value was “significantly decreased the expression”.

Q: And the “phosphorylation of STAT3 in tumor tissues” value ([5]; versus DMSO)?
A: Its value is “phosphorylation of STAT3 significantly decreased”.

Source: US20200354327A1, “COMPOUND HAVING STAT3 INHIBITORY ACTIVITY AND USE THEREOF” (CYTUS H&B CO., LTD., priority 2017, published 2020)
